Results from PMC8890100 (Chemical Science, 2022).

Experiments:
PPARγ–LBD = molecular target: T1, PPARγ–LBD (Homo sapiens, UniProt P37231); assay: 2D fluorescence anisotropy; format: binding; conditions: ligand excess vs no ligand
T1 sequence (P37231 238-503 limits assumed): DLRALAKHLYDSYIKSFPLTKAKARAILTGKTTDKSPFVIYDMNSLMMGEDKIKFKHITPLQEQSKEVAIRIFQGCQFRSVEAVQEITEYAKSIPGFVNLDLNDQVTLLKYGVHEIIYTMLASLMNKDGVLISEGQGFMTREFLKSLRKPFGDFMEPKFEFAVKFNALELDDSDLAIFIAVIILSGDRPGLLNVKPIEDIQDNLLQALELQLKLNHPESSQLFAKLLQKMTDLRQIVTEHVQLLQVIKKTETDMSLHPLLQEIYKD

PPARγ·MED1 = PPARγ·MED1 (Homo sapiens, UniProt P37231); assay: 2D-ITC of ligand to PPARγ in the presence of MED1 in cell and syringe; format: binding; conditions: for cooperativity value α: ITC, PPARγ·ligand·MED1 complex; for −TΔΔS: cooperative effect of MED1 on ligand binding

EC50 shift (fold enhancement of PPARγ/MED1 EC50) (PPARγ–LBD)	cooperativity value α (PPARγ·MED1)	−TΔΔS (PPARγ·MED1) [kcal/mol]	ΔH (PPARγ·MED1; ligand binding to PPARγ in the presence of MED1) [kcal/mol]	Compound
smaller EC50 shift				CC[C@@H](Oc1cccc(CN(CCCOc2ccc(OC)cc2)c2nc3ccccc3o2)c1)C(=O)O [Pemafibrate]
	28	-2.3		CN(CCOc1ccc(CC2SC(=O)NC2=O)cc1)c1ccccn1 (centres unmarked) [Rosiglitazone]
smaller EC50 shift				CCCc1nc2c(C)cc(-c3nc4ccccc4n3C)cc2n1Cc1ccc(-c2ccccc2C(=O)O)cc1 [Telmisartan]
24 fold	18	-3.5	21.0	CCO[C@@H](Cc1ccc(OCCc2ccc(OS(C)(=O)=O)cc2)cc1)C(=O)O [Tesaglitazar]
